Results published in the supplement of paper PMC10307832.

Key:
Test in all cases: relative viability (nuclei count vs DMSO), 5 days (fraction); higher = more cells survive
Adavosertib + Pemetrexed = compound: C=CCn1c(=O)c2cnc(Nc3ccc(N4CCN(C)CC4)cc3)nc2n1-c1cccc(C(C)(C)O)n1 [Adavosertib] + Nc1nc2[nH]cc(CCc3ccc(C(=O)N[C@@H](CCC(=O)O)C(=O)O)cc3)c2c(=O)[nH]1 [Pemetrexed] (partner 0.2 µM)
In short: (§1)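 Relative viability is defined as nuclei in treated wells over nuclei in vehicle wells. Duplicate plates were run and medians reported. Lung cancer cell lines in 1536-well plates were dosed by pin tool one day after seeding, with one drug or with a fixed anchor-drug dose plus five library-drug doses (not always all listed) in √10 steps, and nuclei were counted after 5 days.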

Nelarabine + Foretinib = compound: COc1nc(N)nc2c1ncn2[C@@H]1O[C@H](CO)[C@@H](O)[C@@H]1O [Nelarabine] + COc1cc2c(Oc3ccc(NC(=O)C4(C(=O)Nc5ccc(F)cc5)CC4)cc3F)ccnc2cc1OCCCN1CCOCC1 [Foretinib] (partner 0.25 µM)
In short: as §1

Nelarabine + Tozasertib = compound: COc1nc(N)nc2c1ncn2[C@@H]1O[C@H](CO)[C@@H](O)[C@@H]1O [Nelarabine] + Cc1cc(Nc2cc(N3CCN(C)CC3)nc(Sc3ccc(NC(=O)C4CC4)cc3)n2)n[nH]1 [Tozasertib] (partner 0.1 µM)
In short: as §1

Nelarabine + Pemetrexed = compound: COc1nc(N)nc2c1ncn2[C@@H]1O[C@H](CO)[C@@H](O)[C@@H]1O [Nelarabine] + Nc1nc2[nH]cc(CCc3ccc(C(=O)N[C@@H](CCC(=O)O)C(=O)O)cc3)c2c(=O)[nH]1 [Pemetrexed] (partner 0.2 µM)
In short: as §1

Cell Line | relative viability (Adavosertib + Pemetrexed; first compound 0.01 µM) | relative viability (Adavosertib + Pemetrexed; first compound 0.03162 µM) | relative viability (Adavosertib + Pemetrexed; first compound 0.1 µM) | relative viability (Adavosertib + Pemetrexed; first compound 0.3162 µM) | relative viability (Nelarabine + Foretinib; first compound 0.01 µM) | relative viability (Nelarabine + Foretinib; first compound 0.03162 µM) | relative viability (Nelarabine + Foretinib; first compound 0.1 µM) | relative viability (Nelarabine + Foretinib; first compound 0.3162 µM) | relative viability (Nelarabine + Foretinib; first compound 1 µM) | relative viability (Nelarabine + Tozasertib; first compound 0.01 µM) | relative viability (Nelarabine + Tozasertib; first compound 0.03162 µM) | relative viability (Nelarabine + Tozasertib; first compound 0.1 µM) | relative viability (Nelarabine + Tozasertib; first compound 0.3162 µM) | relative viability (Nelarabine + Tozasertib; first compound 1 µM) | relative viability (Nelarabine + Pemetrexed; first compound 0.01 µM) | relative viability (Nelarabine + Pemetrexed; first compound 0.03162 µM) | relative viability (Nelarabine + Pemetrexed; first compound 0.1 µM) | relative viability (Nelarabine + Pemetrexed; first compound 0.3162 µM) | relative viability (Nelarabine + Pemetrexed; first compound 1 µM)
NCI-H661 | 0.915 | 0.834 | 0.74 | 0.415 | 1.15 | 1.2 | 1.02 | 1.05 | 1.06 | 0.343 | 0.334 | 0.333 | 0.344 | 0.364 | 0.963 | 1.07 | 0.865 | 0.899 | 0.899
PC-3 [JPC-3] | – | 1.24 | 1.26 | 1.12 | 1.14 | 0.99 | 1.04 | 1.03 | 1.09 | 1.02 | 0.747 | 0.934 | 0.891 | 0.899 | 0.9 | 0.866 | 1.36 | 1.17 | 0.751
NCI-H358 | 0.227 | 0.189 | 0.166 | 0.157 | 0.854 | 0.666 | 0.622 | 0.854 | 0.762 | 0.0868 | 0.0783 | 0.096 | 0.105 | 0.0898 | 0.181 | 0.227 | 0.161 | 0.172 | 0.328
COR-L23 | 0.203 | 0.198 | 0.204 | 0.165 | 1.23 | 1.02 | 0.917 | 0.992 | 0.964 | 0.199 | 0.165 | 0.168 | 0.22 | 0.185 | 0.205 | 0.194 | 0.193 | 0.184 | 0.203
RERF-LC-KJ | 0.384 | 0.463 | 0.481 | 0.471 | 1.1 | 1.07 | 0.923 | 0.858 | 0.938 | 0.558 | 0.483 | 0.456 | 0.5 | 0.513 | 0.477 | 0.424 | 0.458 | 0.489 | 0.49
A-427 | 0.97 | 0.905 | 0.892 | 0.893 | 1.11 | 0.97 | 0.972 | 1.13 | 0.954 | 0.181 | 0.204 | 0.169 | 0.175 | 0.181 | 1.04 | 1.05 | 1.11 | 0.984 | 0.838
EKVX | 0.426 | 0.374 | 0.309 | 0.362 | 0.966 | 0.803 | 0.732 | 0.614 | 0.777 | 0.463 | 0.476 | 0.449 | 0.372 | 0.395 | 0.431 | 0.436 | 0.417 | 0.506 | 0.46
LOU-NH91 | 0.371 | 0.371 | 0.338 | 0.36 | 0.959 | 0.938 | 0.932 | 0.893 | 0.977 | 0.787 | 0.675 | 0.675 | 0.673 | 0.653 | 0.385 | 0.35 | 0.442 | 0.329 | 0.381
SW 900 | 0.457 | 0.484 | 0.492 | 0.443 | 1.02 | 0.749 | 0.934 | 0.947 | 0.832 | 0.617 | 0.476 | 0.635 | 0.611 | 0.532 | 0.53 | 0.538 | 0.482 | 0.526 | 0.506
201T | 0.319 | 0.343 | 0.325 | 0.281 | 1.46 | – | 1.04 | 1.03 | 1.05 | 1.12 | 0.692 | 0.885 | 1.08 | 0.926 | 0.378 | 0.279 | 0.349 | 0.417 | 0.444
NCI-H1793 | 0.808 | 0.913 | 0.756 | 0.782 | 0.84 | 0.747 | 0.709 | 0.731 | 0.713 | 0.316 | 0.317 | 0.328 | 0.327 | 0.352 | 1.04 | – | 1.07 | 0.962 | 0.88
LXF-289 | 0.914 | 0.931 | 0.856 | 0.722 | 1.07 | 0.922 | 0.988 | 1.07 | 0.969 | 0.222 | 0.234 | 0.173 | 0.232 | 0.233 | 1 | 0.833 | 0.866 | 0.973 | 0.906
ChaGo-K-1 | 0.271 | 0.255 | 0.258 | 0.257 | 0.971 | 0.826 | 0.82 | 0.947 | 0.882 | 0.237 | 0.205 | 0.193 | 0.232 | 0.231 | 0.242 | 0.249 | 0.261 | 0.258 | 0.252
NCI-H23 | 0.664 | 0.539 | 0.487 | 0.262 | 1.13 | 0.862 | 0.94 | 1.09 | 0.948 | 0.594 | 0.327 | 0.377 | 0.369 | 0.509 | 1.04 | 0.729 | 0.771 | 0.71 | 0.666
NCI-H1975 | 0.263 | 0.268 | 0.209 | 0.213 | 1.01 | 0.892 | 1.14 | 0.986 | 1.07 | 0.69 | 0.689 | 1.05 | 0.911 | 0.926 | 0.376 | 0.278 | 0.312 | 0.305 | 0.303
NCI-H3122 | 0.211 | 0.199 | 0.188 | 0.173 | 1.11 | 0.771 | – | 1.05 | 0.962 | 0.547 | 0.403 | – | 0.434 | 0.534 | 0.194 | 0.18 | – | 0.204 | 0.195
NCI-H838 | 0.263 | 0.22 | 0.172 | 0.168 | 1.24 | 0.937 | 1.08 | 1.08 | 1.09 | 0.285 | 0.274 | 0.272 | 0.341 | 0.262 | 0.268 | 0.252 | 0.287 | 0.278 | 0.282
H3255 | 0.553 | 0.59 | 0.563 | 0.536 | – | 1.12 | 0.828 | 0.938 | 0.923 | – | 0.896 | 0.685 | 0.576 | 0.515 | 0.531 | 0.571 | 0.557 | 0.551 | 0.571
NCI-H2085 | 0.881 | 0.86 | 0.901 | 0.998 | 0.96 | 1.04 | 0.76 | 0.881 | 1.06 | 0.847 | 0.914 | 0.733 | 0.882 | 0.736 | 0.906 | 0.865 | 0.93 | 0.871 | 0.87
NCI-H1355 | 0.984 | 1.03 | 0.965 | 0.808 | 1.05 | 0.984 | 0.947 | 1 | 1.03 | 0.521 | 0.483 | 0.478 | 0.539 | 0.577 | 1.12 | 1.05 | 1.02 | 1.15 | 1.08
SK-MES-1 | 0.958 | 0.916 | 0.754 | 0.338 | 1.07 | 0.932 | 0.946 | 0.949 | 1.18 | 1 | 0.89 | 0.944 | 0.924 | 0.937 | 1.17 | 0.951 | 0.957 | 1.03 | 1.07
NCI-H1755 | 0.419 | 0.43 | 0.43 | 0.392 | 0.939 | 0.82 | 0.928 | 1.05 | 1.01 | 0.683 | 0.524 | 0.561 | 0.645 | 0.557 | 0.654 | 0.377 | 0.363 | 0.501 | 0.451
NCI-H650 | 0.892 | 1.07 | 0.952 | 0.774 | 1.09 | 1.04 | 0.968 | 0.886 | 1.13 | 0.787 | 0.616 | 0.694 | 0.768 | 0.735 | 0.986 | 0.814 | 0.913 | 0.971 | 1.02
COR-L 105 | 0.976 | 1.07 | 1.07 | 0.916 | 0.953 | 0.991 | 1.26 | 1.08 | 0.967 | 0.356 | 0.353 | 0.302 | 0.362 | 0.433 | 1.11 | 1.26 | 1.16 | 1.15 | 1.08
BEN | 0.739 | 0.76 | 0.816 | 0.815 | 0.583 | 0.744 | 0.655 | 0.638 | 0.556 | 0.566 | 0.495 | 0.551 | 0.546 | 0.452 | 0.788 | 0.822 | 0.765 | 0.837 | 0.752
NCI-H322M | 0.593 | 0.625 | 0.52 | 0.469 | 0.972 | 0.948 | 0.816 | 0.939 | 0.976 | 0.554 | 0.485 | 0.407 | 0.501 | 0.456 | 0.601 | 0.565 | 0.631 | 0.653 | 0.61
HCC-366 | 0.227 | 0.143 | 0.136 | 0.0818 | 1.03 | 0.717 | 0.942 | 0.974 | 0.895 | 0.0929 | 0.0947 | 0.0956 | 0.17 | 0.112 | 0.204 | 0.146 | 0.202 | 0.225 | 0.22
NCI-H596 | 0.497 | 0.515 | 0.471 | 0.423 | 0.829 | 0.917 | 0.773 | 0.848 | 0.84 | 1.07 | 0.835 | 0.879 | 0.862 | 0.827 | 0.504 | 0.517 | 0.574 | 0.492 | 0.491
